Earlier results in patent US20150306063A1, “COMPOSITION AND METHOD FOR VAGINAL THERAPY” (priority 2014, published 2015).

Conditions: elderly patients, including patients older than 65 years of age

## COc1ccccc1OCC(O)COC(N)=O (stereo not shown) [Methocarbamol, 3-(2-methoxyphenoxy)-1,2-propanediol 1-carbamate]
  half-life in the elderly as compared with a younger population: only slightly prolonged
